By IC50 is commonly meant the concentration that inhibits the measured activity by half.

The subject of assay [1] is Human umbilical vein endothelial cells (HUVEC). Nature of the assay: HUVEC colony survival with increasing doses of X-rays. It counts as cell-based. Conditions: highest X-ray dose. The procedure:
In another study of HUVEC radiation sensitivity, cells were treated with NM-3 (100 ng/ml) 1 hr prior to exposure of the cells to increasing doses of gamma irradiation (X-rays). The numbers of HUVEC colonies that formed following the different treatments were recorded and normalized to the number of colonies formed under control conditions (see FIG. 2). Increasing doses of X-rays in the absence of NM-3 decreased HUvEC colony survival to a minimal value of 10% survival at the highest dose tested. In the presence of NM-3, HUVEC colony survival decreased to 0.01% of the initial living cells at the highest X-ray dose.

Another assay concerns MKN28. Nature of the assay: Cell growth (WST-1) in the presence of NM-3. The format is cell-based. The conditions noted are these: Homo sapiens, MKN-28, 72 h; 3 days culture; value somewhat low due to the influence of DMSO. (Tetrazolium dyes change colour on reduction, which living cells bring about.)

In the case of `COc1cc(O)c2c(=O)oc(C(C)C(=O)O)cc2c1` (stereo not drawn) [NM-3, 2-(8-hydroxy-6-methoxy-1-oxo-1H-2-benzopyran-3-yl) propionic acid], the HUVEC colony survival in assay [1] (NM-3 100 ng/ml 1 hr prior to irradiation) is given as 0.01%. In assay [1] (NM-3 100 ng/ml), the “Increase of sensitivity to X-ray induced lethality” value is on record as “approximately 1000 fold”. The IC50 in the assay on MKN28 was found to be 175 µg/mL.

The values are drawn from patent US6900239B2, “Tumor chemopotentiation using isocoumarin derivatives” (ILWZ ILEX Products, Inc., priority 2000, dated 2005).
